Source: PubChem BioAssay (NCI)
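In this assay, cells in 96-well plates receive the compound at five concentrations for 48 hours. Endpoints are linearly interpolated between the surrounding concentrations. GI50 marks 50% less growth. TGI: total growth inhibition.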

Tests used:
Experiment in all cases: NCI anticancer screen, dose series, 48 h
HL-60(TB) leukemia = tested on: HL-60(TB) leukemia
SN12C renal = tested on: SN12C renal
KM12 colon = tested on: KM12 colon
SNB-75 CNS = tested on: SNB-75 CNS
NCI-H460 lung = tested on: NCI-H460 lung
NCI-H23 lung = tested on: NCI-H23 lung
SF-539 CNS = tested on: SF-539 CNS
HT29 colon = tested on: HT29 colon
SK-MEL-2 melanoma = tested on: SK-MEL-2 melanoma
K-562 leukemia = tested on: K-562 leukemia

| Compound | TGI (HL-60(TB) leukemia) [µM] | TGI (SN12C renal) [µM] | TGI (KM12 colon) [µM] | TGI (SNB-75 CNS) [µM] | TGI (NCI-H460 lung) [µM] | TGI (NCI-H23 lung) [µM] | TGI (SF-539 CNS) [µM] | TGI (HT29 colon) [µM] | TGI (SK-MEL-2 melanoma) [µM] | TGI (K-562 leukemia) [µM] | GI50 (HL-60(TB) leukemia) [µM] | GI50 (SN12C renal) [µM] | GI50 (KM12 colon) [µM] | GI50 (SNB-75 CNS) [µM] | GI50 (NCI-H460 lung) [µM] | GI50 (NCI-H23 lung) [µM] | GI50 (SF-539 CNS) [µM] | GI50 (HT29 colon) [µM] | GI50 (SK-MEL-2 melanoma) [µM] | GI50 (K-562 leukemia) [µM] |
| --- | --- | --- | --- | --- | --- | --- | --- | --- | --- | --- | --- | --- | --- | --- | --- | --- | --- | --- | --- | --- |
| CC1Oc2cc3c(-c4c(O)cc(O)c5c(O)c6c(cc45)OC(C)C(C)C6=O)c(O)cc(O)c3c(O)c2C(=O)C1C (stereo not given) | 0.65 | 1.12 | 1.51 | 0.557 | 0.163 | 0.756 | 0.645 | 0.397 | 0.331 | 0.627 |  |  |  |  |  |  |  |  |  |  |
| O=C(O)CS(=O)(=O)C(c1ccccc1)c1ccccc1 | > 100 | > 100 | > 100 | > 100 | > 100 | > 100 | > 100 | > 100 | > 100 | > 100 |  |  |  |  |  |  |  |  |  |  |
| Cc1cc(N2CCCCC2)nc(N(CCNc2ccnc3cc(Cl)ccc23)Cc2ccco2)n1 | 3.94 | 3.56 | 4.71 | 4.33 | 3.34 | 4.97 | 4.2 | 2.84 | 4.27 | 4.03 | 1.91 | 1.83 | 2.07 | 1.88 | 1.76 | 1.91 | 2.05 | 1.05 | 2.06 | 1.54 |
| CCN=C1C=CC(=C(c2ccc(N(C)C)cc2)c2ccc(N(C)C)cc2)c2ccccc21 | 0.141 | 1.37 | 0.18 | 0.332 | 0.572 | 0.211 | 0.53 | 0.207 | 0.472 | 2.17 | 0.0434 | 0.035 | 0.0383 | 0.0833 | 0.0657 | 0.03 | 0.124 | 0.0326 | 0.101 | 0.0557 |
| CCN1C(=O)N(CC)C2C1NN=c1s/c(=C3\C(=O)N(C(C)C)c4ccccc43)c(=O)n12 (stereo not given) | 0.63 | > 100 | > 100 | 20.9 | > 100 | 30.5 | 0.706 | > 100 | > 49.7 | > 100 | 0.24 | 0.616 | 0.384 | 0.317 | 0.354 | 0.421 | 0.24 | 0.35 | 1.24 | 0.329 |
| CCCN(Cc1ccc(F)cc1)c1ccc(CO)c(Cl)c1 | 19.2 | 23.1 | 27.3 | 22.7 | 11.5 | 20.2 | 29 | 16.4 | 13.3 | 15.2 | 3.27 | 9.42 | 13 | 10.6 | 0.359 | 4.24 | 15.3 | 4.78 | 2.99 | 2.22 |
| OCC1OC(n2ccc3c2ncn2ncnc32)C(O)C1O (stereo not given) | 5.5 | > 100 | > 100 | 68.7 | > 100 | > 100 | 57.3 | > 100 | > 100 | > 100 | 0.854 | 0.6 | 2.42 | 4.2 | 2.25 | 1.4 | 2.13 | 0.444 | 46.2 | 2.07 |
| CCOC(=O)Cc1c[nH]c(=S)[nH]c1=O | > 100 | > 100 | > 100 | > 100 | > 100 | > 100 | > 100 | > 100 | > 100 | > 100 | > 100 | > 100 | > 100 | > 100 | > 100 | > 100 | > 100 | > 100 | > 100 | > 100 |
| CCc1c(C)[nH]c(/C=C2\N=C(c3ccc[nH]3)C=C2OC)c1C | 2.1 | 15.6 | 5.26 | 0.71 | 10.8 | 11.3 | 2.16 | 2.29 | 0.989 | 8.97 | 0.127 | 0.627 | 0.0944 | 0.269 | 0.094 | 1.1 | 0.448 | < 0.0376 | 0.234 | 0.805 |
| O=C(O)[C@@H]1C2CC([C@@H]1C(=O)O)[C@H](N1C(=O)CCC1=O)[C@@H]2Br (stereo not given in full) | > 100 | > 100 | > 100 | > 100 | > 100 | > 100 | > 100 | > 100 | > 100 | > 100 |  |  |  |  |  |  |  |  |  |  |
| COC(=O)c1[nH]c(=S)[nH]c(=O)c1-c1ccc(Cl)cc1 | > 50 | > 50 | > 50 | > 50 | > 50 | > 50 | > 50 | > 50 | > 50 | > 50 |  |  |  |  |  |  |  |  |  |  |
| CCN(CC)CCOc1ccc(C(=C(C)c2ccc(Cl)cc2)c2ccc(OCCN(CC)CC)cc2)cc1 | 1.34 | 2.88 | 1.37 | 1.66 | 1.18 | 6.41 | 1.1 | 1.27 | 1.32 | 1.74 | 0.639 | 1.19 | 0.666 | 0.0499 | 0.63 | 1.88 | 0.59 | 0.578 | 0.661 | 0.627 |
